Assay results taken from PMC11450120, “One-pot synthesis, characterization and antiviral properties of new benzenesulfonamide-based spirothiazolidinones” (Molecular Diversity, 2024).
pEC50: −log10 of the molar value. Where two headings read alike, the source gives them in different places.

Key:
[1] = tested on: influenza B virus (B/Ned/537/05); assay: Influenza virus CPE reduction assay in MDCK cells, influenza B; type: cell-based; conditions: read-out: Antiviral EC50 Influenza B Microscopy; for pEC50: Influenza B virus, 96 h, CPE by microscopic scoring, 4 days at 35 °C
[2] = tested on: Madin-Darby canine kidney (MDCK) cells; conditions: for cytotoxicity at the highest concentration tested: at 100 μM
[3] = tested on: influenza A/H1N1 (A/Virginia/ATCC3/2009) virus; assay: Influenza virus CPE reduction assay in MDCK cells, A/H1N1; type: cell-based; conditions: for EC50: BXA concentration unit nM; for pEC50: Influenza A virus
[4] = tested on: influenza A/H3N2 (A/HK/7/87) virus; assay: Influenza virus CPE reduction assay in MDCK cells, A/H3N2; type: cell-based; conditions: for EC50: BXA concentration unit nM; for pEC50: Influenza A virus, H3N2, 96 h, 4 days at 35 °C
in vitro = conditions: dog
[5] = 96 h, CPE by microscopic scoring, 4 days at 35 °C, read-out: Antiviral EC50 Influenza A/H1N1 Microscopy
[6] = 96 h, MTS cell viability assay, 4 days at 35 °C, read-out: Antiviral EC50 Influenza A/H1N1 MTS
[7] = CPE by microscopic scoring, read-out: Antiviral EC50 Influenza A/H3N2 Microscopy
[8] = MTS cell viability assay, read-out: Antiviral EC50 Influenza A/H3N2 MTS
[9] = read-out: EC50 against influenza A/H1N1 virus (range over microscopy and MTS)

Row | SMILES | EC50 ([1]; microscopic scoring, BXA concentration unit nM) [nM] | CC50 [2] [µM] | Cytotoxicity MCC (minimal cytotoxic concentration) [2] [µM] | EC50 ([3]; MTS assay, read-out: Antiviral EC50 Influenza A/H1N1 MTS) [nM] | EC50 ([3]; microscopic scoring, read-out: Antiviral EC50 Influenza A/H1N1 Microscopy) [nM] | EC50 ([4]; MTS assay, read-out: Antiviral EC50 Influenza A/H3N2 MTS) [nM] | EC50 ([4]; microscopic scoring, read-out: Antiviral EC50 Influenza A/H3N2 Microscopy) [nM] | pEC50 [1] | CC50 (in vitro) [µM] | Cytotoxicity MCC (minimal cytotoxic concentration) ([2]; dog) [µM] | pEC50 [3, 5] | pEC50 [3, 6] | melting point [°C] | pEC50 [4, 7] | pEC50 [4, 8] | cytotoxicity at the highest concentration tested [2] | activity against influenza A/H1N1 virus (in words) [3] | pEC50 [3, 9]
1 | O=C1c2c(O)c(=O)ccn2N([C@@H]2c3ccccc3SCc3c2ccc(F)c3F)[C@@H]2COCCN12 [BXA, baloxavir acid, reference compound] | 8.3 | > 0.02 | > 0.02 | 1.5 | 1.8 | 1.7 | 2 |  |  |  |  |  |  |  |  |  |  | 
2 | COc1cc(S(N)(=O)=O)ccc1C(=O)NN1C(=O)C(C)SC12CCC(c1ccccc1)CC2 (stereo not drawn) [3 h, 2-Methoxy-N-(2-methyl-3-oxo-8-phenyl-1-thia-4-azaspiro[4.5]decan-4-yl)-4-sulfamoylbenzamide] |  |  |  |  |  |  |  | < 4.00 | > 100 | 100 | < 4.00 | < 4.00 | 290 to 292 | < 4.00 | < 4.00 |  |  | 
3 | COc1cc(S(N)(=O)=O)ccc1C(=O)NN1C(=O)C(C)SC12CCC(NC(C)=O)CC2 (stereo not drawn) [Compound 3j, 2-Methoxy-N-(8-acetamido-2-methyl-3-oxo-1-thia-4-azaspiro[4.5]decan-4-yl)-4-sulfamoylbenzamide] |  |  |  |  |  |  |  | < 4.00 | > 100 | > 100 | < 4.00 | < 4.00 |  | < 4.00 | < 4.00 |  |  | 
4 | NC(=O)c1ncn([C@@H]2O[C@H](CO)[C@@H](O)[C@H]2O)n1 [Ribavirin, reference compound] |  |  |  |  |  |  |  | 5.00 | > 100 |  | 4.35 | 4.60 |  | 4.40 | 4.59 |  |  | 
5 | COc1cc(S(N)(=O)=O)ccc1C(=O)NN1C(=O)C(C)SC12CCC(C(F)(F)F)CC2 (stereo not drawn) [3 g, 2-Methoxy-N-(2-methyl-3-oxo-1-thia-8-trifluoromethyl-4-azaspiro[4.5]decan-4-yl)-4-sulfamoylbenzamide] |  |  |  |  |  |  |  | < 4.00 | > 100 | 100 | < 4.00 | < 4.00 | 210 to 214 | < 4.00 | < 4.00 |  |  | 
6 | COc1cc(S(N)(=O)=O)ccc1C(=O)NN1C(=O)C(C)SC12CCC(C#N)(c1ccccc1)CC2 (stereo not drawn) [Compound 3i, 2-Methoxy-N-(8-cyano-2-methyl-3-oxo-8-phenyl-1-thia-4-azaspiro[4.5]decan-4-yl)-4-sulfamoylbenzamide] |  |  |  |  |  |  |  | < 4.00 | > 100 | > 100 | < 4.00 | 4.13 | 265 to 270 | < 4.00 | < 4.00 |  |  | 
7 | CCC1CCC2(CC1)SC(C)C(=O)N2NC(=O)c1ccc(S(N)(=O)=O)cc1OC (stereo not drawn) [Compound 3c, 2-Methoxy-N-(8-ethyl-2-methyl-3-oxo-1-thia-4-azaspiro[4.5]decan-4-yl)-4-sulfamoylbenzamide] |  |  |  |  |  |  |  | < 4.00 | > 100 | 100 | < 4.00 | 4.10 | 270 to 272 | < 4.00 | < 4.00 |  |  | 
8 | COc1cc(S(N)(=O)=O)ccc1C(=O)NN1C(=O)C(C)SC12CCC(C)CC2 (stereo not drawn) [Compound 3b, 2-Methoxy-N-(2,8-dimethyl-3-oxo-1-thia-4-azaspiro[4.5]decan-4-yl)-4-sulfamoylbenzamide] |  |  |  |  |  |  |  | < 4.00 | > 100 | > 100 | < 4.00 | < 4.00 | 258 to 261 | < 4.00 | < 4.00 |  |  | 
9 | COc1cc(S(N)(=O)=O)ccc1C(=O)NN1C(=O)C(C)SC12CCC(C(C)(C)C)CC2 (stereo not drawn) [Compound 3e, 2-Methoxy-N-(2-methyl-3-oxo-8-tert-butyl-1-thia-4-azaspiro[4.5]decan-4-yl)-4-sulfamoylbenzamide] |  |  |  |  |  |  |  | < 4.00 | > 100 | > 100 | 4.35 | 4.46 | 301 to 304 | < 4.00 | 4.17 | no cytotoxicity | weak activity | 4.35 to 4.46
10 | CCC(C)(C)C1CCC2(CC1)SC(C)C(=O)N2NC(=O)c1ccc(S(N)(=O)=O)cc1OC (stereo not drawn) [Compound 3f, 2-Methoxy-N-(2-methyl-3-oxo-8-tert-pentyl-1-thia-4-azaspiro[4.5]decan-4-yl)-4-sulfamoylbenzamide] |  |  |  |  |  |  |  | < 4.00 | > 100 | > 100 | < 4.00 | < 4.00 | 290 to 295 | < 4.00 | < 4.00 |  |  | 
11 | CCCC1CCC2(CC1)SC(C)C(=O)N2NC(=O)c1ccc(S(N)(=O)=O)cc1OC (stereo not drawn) [Compound 3d, 2-Methoxy-N-(2-methyl-3-oxo-8-propyl-1-thia-4-azaspiro[4.5]decan-4-yl)-4-sulfamoylbenzamide] |  |  |  |  |  |  |  | < 4.00 | > 100 | 100 | 4.35 | 4.41 | 274 to 276 | < 4.00 | < 4.00 | no cytotoxicity | weak activity | 4.35 to 4.46
12 | CC(=O)N[C@H]1[C@H]([C@H](O)[C@H](O)CO)OC(C(=O)O)=C[C@@H]1N=C(N)N [Zanamivir, reference compound] |  |  |  |  |  |  |  | > 6.10 | > 100 | > 100 | < 4.00 | < 4.00 |  | > 6.10 | > 6.10 |  |  | 
13 | COc1cc(S(N)(=O)=O)ccc1C(=O)NN1C(=O)C(C)SC12CCCC(C)C2 (stereo not drawn) [Compound 3a, 2-Methoxy-N-(2,7-dimethyl-3-oxo-1-thia-4-azaspiro[4.5]decan-4-yl)-4-sulfamoylbenzamide] |  |  |  |  |  |  |  | < 4.00 | > 100 | > 100 | < 4.00 | 4.12 | 261 to 264 | < 4.00 | 4.19 |  |  | 
